Experimental findings from patent EP0968998A1, “Cosmetic compositions, ceramide analogues with anti-elastase activity and process for their preparation” (ELF ATOCHEM S.A., priority 1998, dated 2000) are described below.

The subject of experiment [1] is stratum corneum. In words: Skin barrier improvement: transepidermal (insensible) water loss (PIE), Servomed evaporimeter, cream applied to inner forearm. The class given is in vivo, volontaires sains ayant une peau sèche. The settings on record: for Perte Insensible en Eau (PIE) M±s: cream with 0,5 % (ex. 7, témoins), 1 % (ex. 4, 8), 5 % (ex. 6). From the text:
(§1) Les exemples qui suivent permettent d'illustrer l'invention. […] Les valeurs sont exprimées en nombre d'onde par centimètre. - Résonance magnétique nucléaire (RMN) Les spectres sont réalisés au moyen d'un appareil BRUCKER DRX 500, à 500 MHz (^1H) et 125 MHz (^13C) dans le DMSO-d6. La calibration de l'appareil est effectuée au moyen de DMSO. Les déplacements chimiques sont exprimés en ppm. […] On utilise le N-succinyl-(Ala)3-p-nitroanilide en solution dans le tétrahydrofurane et une solution d'élastase à 100 mg/ml dans un mélange de glycérol et de tampon acétate de sodium (50/50; v/v), pH5. L'activité de l'enzyme est mesurée à 37°C dans 100 mM de tampon Tris-HCI, pH8 contenant 0,01 % de Triton X-100 (volume/volume) et 0,02 % d'azide de sodium (poids/volume). Le céramide à tester, solubilisé dans le tétrahydrofurane (concentration en THF = 0,5 % en volume) est préincubé en présence de l'enzyme (0,05 mg/ml) dans le tampon pendant 5 minutes à 37°C. On ajoute le N-succinyl-(Ala)3-p-nitroanilide (concentration finale : 250 µM) et on mesure la libération de la p-nitroaniline dans une cuve en quartz par spectrophotométrie à 410 nm. La capacité inhibitrice du céramide est exprimée en pourcentage d'inhibition (% I) selon la relation : %I = (1 -(Vi)/(Vo))×100 [formula] dans laquelle Vi et Vo sont les vitesses d'apparition de la p-nitroaniline en présence et en absence d'inhibiteur respectivement. - Mesure de l'amélioration de la barrière cutanée a) mesure de la Perte Insensible en Eau (PIE) La mesure de la PIE permet de quantifier la très faible quantité d'eau qui diffuse passivement à travers le stratum corneum. Ce paramètre représente un très bon index de la fonction barrière du stratum corneum. Cette méthode est surtout utilisée pour contrôler l'efficacité de formules cosmétiques qui, contenant certains types de lipides sont capables de diminuer la PIE et, en conséquence, d'empêcher la déshydratation du stratum corneum. La sonde est laissée en contact de la peau pendant 2 minutes environ de façon à atteindre une position d'équilibre. PIE = D'(dP)/(dx)(gradient de pression de vapeur) [formula] Les valeurs sont exprimées en g/m^2/heure et permettent de calculer un delta de PIE = PIE (peau traitée) - PIE (peau témoin). L'appareil utilisé est un Evaporimètre EPI de Servomed. Les mesures sont effectuées sur deux groupes de 15 volontaires sains ayant une peau sèche, avant l'application du produit (t=0) et après l'application (t=0,5 heure, 1 heure, 3 heures et 6 heures) sur la face interne des deux avant-bras. L'analogue de céramide selon l'invention ou le céramide témoin est incorporé dans une crème ayant la composition suivante (en % en poids) :
(§2) La teneur en analogue de céramide dans la crème est égale à 0,5 % (exemple 7), 1 % (exemples 4 et 8) et 5 % (exemple 6), et celle des céramides témoins (a) et (b) est égale à 0,5 %. La diminution des valeurs de PIE signifie une amélioration de la qualité de la barrière cutanée qui traduit un meilleur pouvoir retentionnel de l'eau au niveau de la couche cornée et donc une meilleure hydratation. b) hydratation cutanée L'eau peut être considérée comme un dipôle électrique capable de conduire l'électricité. Le transport d'électricité dans un champ donné est proportionnel à la quantité d'eau présente dans le stratum corneum. Plus une peau est riche en eau et plus le courant électrique passe rapidement entre 2 électrodes. Il existe donc un lien entre l'hydratation du stratum corneum et les modifications des propriétés électriques. Les mesures de capacitance, liée à la constante diélectrique de la peau, sont réalisées par le Cornéomètre Courage+Khazaka CM 200, dont la sonde présente une surface de contact avec la peau de 49 mm^2; cette sonde est appliquée avec une pression constante sur la surface cutanée à mesurer, et l'indice d'hydratation directement proportionnel au taux hydrique de surface est instantané.

Experiment [2] deals with stratum corneum. In words: Skin hydration: capacitance measurement (Corneometer Courage+Khazaka CM 200), hydration index, cream applied to forearm. Format: in vivo, volontaires sains ayant une peau sèche. The settings on record: for Indice d'Hydratation (IH) M±s: cream with 0,5 % (ex. 7, témoins), 1 % (ex. 4, 8), 5 % (ex. 6).
Text: as §1, §2

The mark [3] stands for this setting: t=0 heure (before application, baseline).

For the compound `CCCCCCCC/C=C\CCCCCCCC(=O)NC(CC)(CO)COC(=O)CCCCCCC/C=C\CCCCCCCC` (stereo not shown) [Exemple 6, 1-oléoyl-2-éthyl-2-oléoylamino-1,3-propanediol], the “Perte Insensible en Eau (PIE) M±s” value in experiment [1] (t=0,5 heure after application) is reported as 3,67±1,34 g/m^2/heure; in experiment [1] (setting [3]) it was 3,96±1,60 g/m^2/heure; in experiment [1] (t=1 heure after application) it was 3,48±1,19 g/m^2/heure; in experiment [1] (t=3 heures after application), 3,39±1,20 g/m^2/heure; in experiment [1] (t=6 heures after application), 3,97±1,20 g/m^2/heure. Besides, the “Perte Insensible en Eau (PIE) % évol.” value in experiment [1] (t=6 heures versus t=0) is listed as 0%. In addition, the “Indice d'Hydratation (IH) M±s” value was 78,53±6,23 in experiment [2] (t=0,5 heure after application); 61,91±6,90 in experiment [2] (setting [3]); 75,29±7,78 in experiment [2] (t=1 heure after application); 67,05±5,61 in experiment [2] (t=3 heures after application); 64,56±6,14 in experiment [2] (t=6 heures after application).

As to `CCCCCCCCCCCCCCCCCC(=O)NC(C)(CO)COC(=O)CCCCCCCCCCCCCCCCC` (stereo not shown) [Exemple 7, 1-stéaroyl-2-méthyl-2-stéaroylamino-1,3-propanediol], the “Perte Insensible en Eau (PIE) M±s” value in experiment [1] (t=0,5 heure after application) is recorded as 4,07±1,72 g/m^2/heure; in experiment [1] (setting [3]), 4,50±2,0 g/m^2/heure; in experiment [1] (t=1 heure after application), 3,78±1,67 g/m^2/heure; in experiment [1] (t=3 heures after application), 3,70±1,50 g/m^2/heure; in experiment [1] (t=6 heures after application) it was 4,46±1,64 g/m^2/heure. The “Indice d'Hydratation (IH) M±s” value in experiment [2] (t=0,5 heure after application) is given as 66,13±5,48; in experiment [2] (setting [3]) it was 60,13±6,27; in experiment [2] (t=1 heure after application), 65,56±6,24; in experiment [2] (t=3 heures after application), 63,82±7,05; in experiment [2] (t=6 heures after application), 61,55±6,32.

Take “N-stéaroyl-D,L-sphingosine [Témoin (a), reference compound]”: the “Perte Insensible en Eau (PIE) M±s” value is reported as 3,91±1,40 g/m^2/heure in experiment [1] (t=0,5 heure after application); 4,40±0,90 g/m^2/heure in experiment [1] (setting [3]); 3,37±1,00 g/m^2/heure in experiment [1] (t=1 heure after application); 4,20±1,09 g/m^2/heure in experiment [1] (t=3 heures after application); 4,11±1,41 g/m^2/heure in experiment [1] (t=6 heures after application). For the same compound, the “Indice d'Hydratation (IH) M±s” value in experiment [2] (t=0,5 heure after application) is 67,11±7,74; in experiment [2] (setting [3]), 63,95±8,45; in experiment [2] (t=1 heure after application), 67,93±9,08; in experiment [2] (t=3 heures after application) it was 62,67±6,59; in experiment [2] (t=6 heures after application) it was 63,47±6,46.

On to `CCCCCCCCCCCCCCCCCC(=O)NC(CO)(CO)COC(=O)CCCCCCCCCCCCCCCCC` [Exemple 8, 1-stéaroyl-2-hydroxyméthyl-2-stéaroylamino-1,3-propanediol], for which the “Perte Insensible en Eau (PIE) M±s” value is reported as 4,28±1,38 g/m^2/heure in experiment [1] (t=0,5 heure after application); 4,52±1,02 g/m^2/heure in experiment [1] (setting [3]); 3,12±1,11 g/m^2/heure in experiment [1] (t=1 heure after application); 4,62±1,14 g/m^2/heure in experiment [1] (t=3 heures after application); 4,55±1,39 g/m^2/heure in experiment [1] (t=6 heures after application). The “Indice d'Hydratation (IH) M±s” value is 67,16±7,98 in experiment [2] (t=0,5 heure after application); 64,13±8,01 in experiment [2] (setting [3]); 67,04±7,74 in experiment [2] (t=1 heure after application); 64,13±8,37 in experiment [2] (t=3 heures after application); 64,87±7,83 in experiment [2] (t=6 heures after application). Moreover, the “Indice d'Hydratation (IH) % évol.” value in experiment [2] (t=3 heures versus t=0) is 0%.

Turning to `CCCCCCCCCCCCCCCCCC(=O)N[C@@H](CO)[C@H](O)[C@H](O)CCCCCCCCCCCCCC` [Témoin (b), N-stéaroyl phytosphingosine, reference compound], the “Perte Insensible en Eau (PIE) M±s” value in experiment [1] (t=0,5 heure after application) is recorded as 4,09±1,86 g/m^2/heure; in experiment [1] (setting [3]), 4,22±2,17 g/m^2/heure; in experiment [1] (t=1 heure after application), 3,80±1,75 g/m^2/heure; in experiment [1] (t=3 heures after application), 3,53±1,57 g/m^2/heure; in experiment [1] (t=6 heures after application) it was 4,36±1,82 g/m^2/heure. Moreover, the “Indice d'Hydratation (IH) M±s” value in experiment [2] (t=0,5 heure after application) was 67,55±7,89; in experiment [2] (setting [3]), 61,00±7,21; in experiment [2] (t=1 heure after application), 67,45±7,33; in experiment [2] (t=3 heures after application), 63,20±5,36; in experiment [2] (t=6 heures after application) it was 61,36±3,79.
